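Five compound concentrations were applied to cells in 96-well plates for 48 hours; endpoints were derived by simple linear interpolation of the resulting dose-response curve. The concentration for 50% growth inhibition is given as GI50.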 Activity calls are given as the source filed them. Cut-off read from the data, not from the text of the source: active = GI50 up to about 1.1 µM and inactive = higher.
What was measured:
Experiment in all cases: NCI tumour cell line growth inhibition, 48 h
HOP-62 = tested on: HOP-62
Malme-3M = tested on: Malme-3M
U-251 = tested on: U-251
HT-29 = tested on: HT-29
HCT-15 = tested on: HCT-15
IGROV-1 = tested on: IGROV-1
KM-20L2 = tested on: KM-20L2
RPMI-8226 = tested on: RPMI-8226
SW-620 = tested on: SW-620
NCI-H226 = tested on: NCI-H226
COLO 205 = tested on: COLO 205
HCC 2998 = tested on: HCC 2998
UACC-62 = tested on: UACC-62
CCRF-CEM = tested on: CCRF-CEM
EKVX = tested on: EKVX
SNB-75 = tested on: SNB-75
HOP-92 = tested on: HOP-92
TK-10 = tested on: TK-10
MCF7 = tested on: MCF7
BT-549 = tested on: BT-549

SMILES	GI50 (HOP-62)	GI50 (Malme-3M)	GI50 (U-251)	GI50 (HT-29)	GI50 (HCT-15) [µM]	GI50 (IGROV-1)	GI50 (KM-20L2)	GI50 (RPMI-8226)	GI50 (SW-620)	GI50 (NCI-H226)	GI50 (COLO 205)	GI50 (HCC 2998)	GI50 (UACC-62)	GI50 (CCRF-CEM)	GI50 (EKVX)	GI50 (SNB-75)	GI50 (HOP-92)	GI50 (TK-10)	GI50 (MCF7)	GI50 (BT-549)
CCOC(=O)/C(C#N)=C1\N[C@H](C(=O)OCC)CO1	> 100 µM (inactive)	> 100 µM (inactive)	> 100 µM (inactive)	> 100 µM (inactive)	> 100	> 100 µM (inactive)	> 100 µM (inactive)	> 100 µM (inactive)	> 100 µM (inactive)	> 100 µM (inactive)	> 100 µM (inactive)	> 100 µM (inactive)	> 100 µM (inactive)	> 100 µM (inactive)	> 100 µM (inactive)					
Cc1nn2c(nc1=O)sc1ccc3ccccc3c12	> 100 µM (inactive)	> 100 µM (inactive)	> 100 µM (inactive)	> 100 µM (inactive)	> 100	> 100 µM (inactive)	> 100 µM (inactive)		> 100 µM (inactive)	> 100 µM (inactive)	> 100 µM (inactive)	> 100 µM (inactive)	> 100 µM (inactive)	> 100 µM (inactive)	> 100 µM (inactive)	> 100 µM (inactive)	> 100 µM (inactive)	> 100 µM (inactive)		
O=CCCCC(Sc1ccccc1)Sc1ccccc1	> 100 µM (inactive)		15.5 µM (inactive)		15.7	19.9 µM (inactive)	39.5 µM (inactive)	16 µM (inactive)	11.4 µM (inactive)		23.5 µM (inactive)	31 µM (inactive)	7.67 µM (inactive)	12 µM (inactive)	31.1 µM (inactive)	18.2 µM (inactive)		32.4 µM (inactive)		
c1cc(-c2cn[nH]c2)cc(-c2cn[nH]c2)c1	17.8 µM (inactive)		46.8 µM (inactive)		28.4	51.2 µM (inactive)	33 µM (inactive)	32.7 µM (inactive)	30.4 µM (inactive)		53.3 µM (inactive)	88.9 µM (inactive)	11.6 µM (inactive)	29.4 µM (inactive)	6.24 µM (inactive)	6.76 µM (inactive)	> 100 µM (inactive)	16.7 µM (inactive)		
CCN(CC)c1ccc(C(=C2C=CC(=[N+](CC)CC)C=C2)c2ccccc2)cc1	0.102 µM (active)	0.0304 µM (active)	0.0234 µM (active)	< 0.01 µM (active)	0.0483	0.0689 µM (active)	0.0302 µM (active)	< 0.01 µM (active)	0.0291 µM (active)	0.023 µM (active)	0.0307 µM (active)	0.0351 µM (active)	0.0451 µM (active)	0.0121 µM (active)	0.108 µM (active)	0.0586 µM (active)	0.0338 µM (active)			
O=P(c1ccccc1)(c1ccccc1)C1CC=C2CCCCCC2C1 (stereo unspecified)		38.9 µM (inactive)	67 µM (inactive)	37.2 µM (inactive)	37.2	37.6 µM (inactive)	> 10 µM (inactive)	16.1 µM (inactive)	> 10 µM (inactive)	26.3 µM (inactive)	24.1 µM (inactive)		23.9 µM (inactive)	23.6 µM (inactive)	37.9 µM (inactive)	25.1 µM (inactive)	11 µM (inactive)	58.7 µM (inactive)		
O=C1/C(=C/c2ccccc2Cl)COc2ccccc21	16.9 µM (inactive)	15.5 µM (inactive)	13.7 µM (inactive)	19 µM (inactive)		18.1 µM (inactive)	18.5 µM (inactive)	3.53 µM (inactive)	5.73 µM (inactive)		21.7 µM (inactive)	20.9 µM (inactive)		4.73 µM (inactive)	16 µM (inactive)	18 µM (inactive)	15.1 µM (inactive)	13.8 µM (inactive)		
COC(=O)C(=O)C(C#N)c1ccc(CC#N)cc1 (stereo unspecified)		> 100 µM (inactive)	> 100 µM (inactive)	> 100 µM (inactive)	> 100	> 100 µM (inactive)	> 100 µM (inactive)	> 100 µM (inactive)	> 100 µM (inactive)	> 100 µM (inactive)			> 100 µM (inactive)	> 100 µM (inactive)	> 100 µM (inactive)	> 100 µM (inactive)	> 100 µM (inactive)	> 100 µM (inactive)		
Cc1cc(N(CCC#N)S(C)(=O)=O)ccc1C=O	> 100 µM (inactive)	> 100 µM (inactive)	> 100 µM (inactive)	> 100 µM (inactive)	> 100	> 100 µM (inactive)	> 100 µM (inactive)	> 100 µM (inactive)	> 100 µM (inactive)	> 100 µM (inactive)	> 100 µM (inactive)	> 100 µM (inactive)	> 100 µM (inactive)	> 100 µM (inactive)		> 100 µM (inactive)				
O=c1c2cc(Br)ccc2[nH]c(=S)n1-c1ccc(Br)cc1	67.6 µM (inactive)	> 100 µM (inactive)	47.3 µM (inactive)	> 100 µM (inactive)	> 100	> 100 µM (inactive)	> 100 µM (inactive)	> 100 µM (inactive)	> 100 µM (inactive)	> 100 µM (inactive)	> 100 µM (inactive)	> 100 µM (inactive)			> 100 µM (inactive)	12.1 µM (inactive)	23 µM (inactive)	> 100 µM (inactive)		
O=[N+]([O-])c1cccc(C2=NN(c3ccccc3)C[N+](c3ccc(Br)cc3)=N2)c1	> 100 µM (inactive)	> 100 µM (inactive)	> 100 µM (inactive)	47.4 µM (inactive)	> 100	37.3 µM (inactive)	> 100 µM (inactive)	82 µM (inactive)	> 100 µM (inactive)		> 100 µM (inactive)	70.8 µM (inactive)	> 100 µM (inactive)		> 100 µM (inactive)	> 100 µM (inactive)	83.2 µM (inactive)	> 100 µM (inactive)		
CC1(C)O[C@H]2OC3CCC(=O)CC3(O)[C@H]2O1 (stereo partly specified)	> 100 µM (inactive)	> 51.6 µM (inactive)	> 100 µM (inactive)	> 100 µM (inactive)	> 100	> 100 µM (inactive)		> 100 µM (inactive)	> 100 µM (inactive)	> 100 µM (inactive)	> 100 µM (inactive)	> 100 µM (inactive)	> 100 µM (inactive)	> 100 µM (inactive)	> 100 µM (inactive)	> 100 µM (inactive)	> 73.3 µM (inactive)	> 100 µM (inactive)	> 100 µM (inactive)	> 100 µM (inactive)
Nc1ccn(C2CCC(COP(=O)(O)OCC(O)COP(=O)(O)OCC3OC(n4cc(F)c(=O)[nH]c4=O)CC3O)O2)c(=O)n1 (stereo unspecified)	0.232 µM (active)	> 53.8 µM (inactive)	1.04 µM (active)	2.79 µM (inactive)	14.4	11.2 µM (inactive)		10.4 µM (inactive)	> 100 µM (inactive)	> 100 µM (inactive)	8.3 µM (inactive)	0.656 µM (active)	0.136 µM (active)	0.124 µM (active)	> 75.9 µM (inactive)	3.54 µM (inactive)	0.0419 µM (active)	5.14 µM (inactive)	< 0.01 µM (active)	3.09 µM (inactive)
CCOC(=O)/C=C(\C(=O)OCC)n1ccc(=O)n(Cc2cn(COCCOC(C)=O)nn2)c1=O	98.6 µM (inactive)	15.2 µM (inactive)	18.9 µM (inactive)	16.2 µM (inactive)	18.9	21.1 µM (inactive)		22.8 µM (inactive)	9.18 µM (inactive)	7.67 µM (inactive)	7.94 µM (inactive)	16.6 µM (inactive)	18.8 µM (inactive)	2.83 µM (inactive)	19.9 µM (inactive)	> 42.7 µM (inactive)	19 µM (inactive)	15.2 µM (inactive)	17.1 µM (inactive)	17.8 µM (inactive)
O=C1C(Cl)=C(N2CCN(c3ncccn3)CC2)C(=O)c2c(O)ccc(O)c21	2.55 µM (inactive)	1.94 µM (inactive)	3.63 µM (inactive)	2.98 µM (inactive)	1.59	1.9 µM (inactive)		2.49 µM (inactive)	1.36 µM (inactive)	21.8 µM (inactive)	1.75 µM (inactive)	10.8 µM (inactive)	2.59 µM (inactive)	0.211 µM (active)	11.4 µM (inactive)	9.02 µM (inactive)	2.37 µM (inactive)	1.89 µM (inactive)	1.51 µM (inactive)	2.14 µM (inactive)
CS(=O)(=O)N(CCC#N)c1ccc(/C=C2\N=C(c3ccccc3Cl)OC2=O)cc1	> 100 µM (inactive)	> 100 µM (inactive)	> 100 µM (inactive)	> 100 µM (inactive)	> 100	> 100 µM (inactive)	> 100 µM (inactive)	> 100 µM (inactive)	> 100 µM (inactive)	> 100 µM (inactive)	> 100 µM (inactive)	> 100 µM (inactive)	> 100 µM (inactive)	> 100 µM (inactive)	> 100 µM (inactive)	> 100 µM (inactive)		> 100 µM (inactive)		
C[C@@]12CCC(=O)c3coc(c31)C(=O)c1cc3c(cc12)C(=O)C=CC3=O [HELENAQUINONE]	> 100 µM (inactive)	17.3 µM (inactive)	23.7 µM (inactive)	19.7 µM (inactive)	17.3	25.9 µM (inactive)	> 86.5 µM (inactive)	64.6 µM (inactive)	19.1 µM (inactive)	29 µM (inactive)	16 µM (inactive)	> 71.3 µM (inactive)	15.5 µM (inactive)		23.6 µM (inactive)	20.9 µM (inactive)	6.93 µM (inactive)	31 µM (inactive)		

Reference: ChEMBL document CHEMBL1201862, “PubChem BioAssay data set” (2004)
